For the experiment, the target named is PRMT5/MEP50 (Homo sapiens (Human), UniProt O14744). The experiment in a line: PRMT5 Biochemical Assay (PRMT5/MEP50 enzyme assay on peptide substrate, 3H-SAM Flashplate). In a few lines:
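FLAG-PRMT5/His-MEP50 from Sf9 cells, 4 nM, with 40 nM biotinylated H4(1-15) peptide and 75 nM 3H-SAM in 20 mM Bicine pH 7.6, 1% DMSO; compound preincubated 30 min at 25 °C. Stopped with 600 uM cold SAM; 3H-peptide captured on streptavidin Flashplate, counted; % inhibition versus DMSO and 100 uM SAH controls, IC50 by 3- or 4-parameter fit.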

PRMT5/MEP50, sequence (O14744 other isoform, or with tags, fused parts or gaps): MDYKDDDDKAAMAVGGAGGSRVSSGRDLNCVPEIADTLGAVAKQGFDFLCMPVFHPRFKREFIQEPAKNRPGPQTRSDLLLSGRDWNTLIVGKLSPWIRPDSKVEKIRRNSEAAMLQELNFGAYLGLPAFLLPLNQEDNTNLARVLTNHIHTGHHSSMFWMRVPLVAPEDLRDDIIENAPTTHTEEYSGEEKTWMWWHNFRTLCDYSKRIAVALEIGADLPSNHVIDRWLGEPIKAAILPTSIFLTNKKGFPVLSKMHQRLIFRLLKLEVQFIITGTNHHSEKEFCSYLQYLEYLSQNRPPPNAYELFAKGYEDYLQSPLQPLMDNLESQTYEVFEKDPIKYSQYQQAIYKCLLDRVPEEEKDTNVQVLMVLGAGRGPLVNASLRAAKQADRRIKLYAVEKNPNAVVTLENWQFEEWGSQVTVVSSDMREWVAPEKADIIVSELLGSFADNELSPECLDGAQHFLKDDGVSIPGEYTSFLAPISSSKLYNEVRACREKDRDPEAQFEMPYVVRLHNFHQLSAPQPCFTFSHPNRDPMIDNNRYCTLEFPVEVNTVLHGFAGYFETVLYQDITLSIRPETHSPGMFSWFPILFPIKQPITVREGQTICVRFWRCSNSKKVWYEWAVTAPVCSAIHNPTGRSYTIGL
PRMT5/MEP50, sequence (Q9BQA1 other isoform, or with tags, fused parts or gaps partner): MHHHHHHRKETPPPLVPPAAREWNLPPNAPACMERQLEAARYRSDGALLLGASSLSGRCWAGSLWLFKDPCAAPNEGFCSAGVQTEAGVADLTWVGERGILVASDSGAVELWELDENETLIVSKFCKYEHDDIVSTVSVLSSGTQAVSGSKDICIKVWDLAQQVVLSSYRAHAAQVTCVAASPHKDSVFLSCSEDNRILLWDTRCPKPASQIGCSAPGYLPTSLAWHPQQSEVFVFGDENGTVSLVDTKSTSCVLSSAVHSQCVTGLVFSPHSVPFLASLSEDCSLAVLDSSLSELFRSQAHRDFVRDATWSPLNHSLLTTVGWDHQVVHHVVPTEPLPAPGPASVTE

`OC(COc1cccc(-c2ccc3cn[nH]c3c2)c1)CN1CCc2ccccc2C1` (centres unmarked) [Compound 58, 1-(3-(1H-indazol-6-yl)phenoxy)-3-(3,4-dihydroisoquinolin-2(1H)-yl)propan-2-ol]: the IC50 was 101 to 1000 nM.
The same measure for “N-(3-(3-(3,4-dihydroisoquinolin-2(1H)-yl)-2-hydroxypropoxy)phenyl)pyrimidine-5-carboxamide [Compound 145]”: 101 to 1000 nM.

Source of the values: patent publication US9777008B2, “PRMT5 inhibitors and uses thereof” (Epizyme, Inc., priority 2012, dated 2017).
